Data on three compounds can be found in patent US11666583B2, “Methods of treating cortical dementia associated wandering” (WOOLSEY PHARMACEUTICALS, INC., priority 2020, dated 2023).

The conditions of data set [1]: 1-hydroxy (M3) metabolite; cited from earlier work.
Data set [2] addresses p38 mitogen-activated protein kinase (Homo sapiens, UniProt Q16539). As to conditions: cited from earlier work.
In the next data set the test system is APP/PS1 transgenic mice. As to conditions: 5 and 10 mg/kg/day intraperitoneally; cited from earlier work.
In data set [3] the test system is patients with wandering due to VaD. As to conditions: cited from earlier work.
The test system of data set [4] is patients with Alzheimer's Dementia (AD) and cortical vascular dementia (VaD). Briefly: Clinical trial of oral fasudil on frequency of wandering (Example 1). The data set is classed as in vivo, human. An excerpt:
Twenty patients, 10 with AD and 10 with VaD (confirmed by […]) who are characterized wanderers, are enrolled into the study and observed for 2 weeks to confirm wandering behavior. […] The double-blind phase is followed by another treatment period of 6 weeks with the opposite treatment assignment (placebo or test drug taken with food).
• a. Walks distinctly more than average as others of same age and ability AND/OR • b. Elopement behavior≥3× per week in the opinion of the investigator Criteria for Entering First Double-Blind Treatment Period: Wanders: • a. Walks less than half the mean distance measured in observation period AND/OR • b. Elopement behavior<1× per week in the opinion of the investigator AND/OR • c. Wandering has improved in the opinion of the Investigator. 4. For entering observation period and for entering open label treatment period: • a. MMSE between 10 and 25.
Wandering is measured in term of time in motion and distance traveled (measures of persistent wandering), attempted and successful boundary transgressions (measures of elopement) and patterns like pacing a lapping (indicative of persistent wandering and/or agitation or anxiety) using an electronic tracking device. A typical tracking device would use a combination of accelerometry with positioning, using technology like RFID or Bluetooth in an indoor environment and GPS outdoors. Other wayfinding, orientation and memory-associated wandering incidents are observed and recorded manually.
The Mini Mental State Exam (MMSE), the Woolsey Wandering Questionnaire and the Revised Algase Wandering Scale are administered at baseline and at the end of each treatment period. Any change in the use of antipsychotics or anxiolytics that could affect movement during the study is strongly discouraged.

A further data set concerns triple transgenic mice. As to conditions: 30 mg/kg and 100 mg/kg in water, 10 or 12 months of age; cited from earlier work.
Data set [5] relates to triple transgenic mouse model (APP Swedish, MAPT P301L, and PSEN1 M146V). As to conditions: 10 mg/kg/day intraperitoneally; cited from earlier work.
For another data set, the system named is streptozotocin rats. As to conditions: 5 and 10 mg/kg/day intraperitoneally; cited from earlier work.

Each structure is given as a SMILES string. Counter-ions that a name gives are not always drawn.

Sequence of p38 mitogen-activated protein kinase (Q16539 whole entry): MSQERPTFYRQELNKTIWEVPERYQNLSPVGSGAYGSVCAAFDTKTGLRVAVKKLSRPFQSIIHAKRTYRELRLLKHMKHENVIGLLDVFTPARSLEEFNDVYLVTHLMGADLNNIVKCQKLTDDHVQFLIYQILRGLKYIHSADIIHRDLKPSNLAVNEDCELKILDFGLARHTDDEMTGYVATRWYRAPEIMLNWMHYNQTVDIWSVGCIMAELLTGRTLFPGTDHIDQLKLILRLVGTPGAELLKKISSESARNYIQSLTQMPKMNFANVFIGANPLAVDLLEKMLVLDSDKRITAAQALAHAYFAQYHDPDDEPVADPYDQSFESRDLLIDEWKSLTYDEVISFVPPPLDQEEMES

`O=S(=O)(c1cccc2c(O)nccc12)N1CCCNCC1` [M3]: the half-life entry in data set [1] is on record as “about 8 hours”.
Take `O=c1ncn2nc(Sc3ccc(F)cc3F)ccc2c1-c1c(Cl)cccc1Cl` [Neflamapimod]: in data set [2] (Phase 2), the “primary endpoint of improving episodic memory” value is reported as “failed” and the “tau in the cerebrospinal fluid” value is listed as “reducing tau”. The Aβ deposition entry in data set [2] (humans) was “no effect”.
With `O=S(=O)(c1cccc2cnccc12)N1CCCNCC1` [fasudil, Hexahydro-1-(5-isoquinolinesulfonyl)-1H-1,4-diazepine monohydrochloride hemihydrate], the “latency distance and quadrant time in the Morris water maze” value in the data set on APP/PS1 transgenic mice and with streptozotocin rats was “improved” throughout. In data set [3] (patient with Binswanger-type cerebral infarction, within weeks of beginning treatment), the wandering symptoms result is “disappeared and remained absent for the duration of treatment”. Moreover, the wayfinding symptoms entry in data set [3] (patient with sequelae of cerebral bleeding and multiple lacunar infarctions (lacunar dementia)) is “disappeared quickly and remained absent for the duration of treatment”. Moreover, the “measures of caregiver burden” value in data set [4] (on drug, 90 mg/day) is “significant effect”. For the same compound, the “reduction in wandering, at least one item of the RAWS and/or the WWQ” value in data set [4] (oral 90 mg/day (30 mg TID), 6 weeks, AD and cortical VaD wanderers) is “significant reduction”. For the same compound, in data set [4] (persistent wanderers, 90 mg/day), the “mean increase in MMSE score” value is listed as “greater than 3 points”. Further, in data set [4] (persistent wanderers, on drug as compared to placebo, 90 mg/day), the “reduction of activity levels” value was “about 50%”. Besides, in data set [4] (sporadic wanderers, while on drug), the “wayfinding errors and other problematic behaviors” value is given as “significant reduction”. For the same compound, the spatial memory entry in the data set on triple transgenic mice was “did not observe improvements”. Further, the “ß-amyloid plaques in vivo” value in data set [5] is listed as “reduce ß-amyloid plaques”.
